Assay results as given in paper PMC3853373 (Archives of biochemistry and biophysics, 2013).
Where “and” joins values, the source holds several entries; their conditions need not be identical. Equal entries are not always repeated. Where two headings read alike, the source gives them in different places.

Columns and labels:
human PNMT (hPNMT) [1] = target: T1, human PNMT (hPNMT) (Homo sapiens, UniProt P11086); test: pH dependence of hPNMT kinetic parameters and of Ki for SK&F 29661; conditions: pH 6-10, 30 °C; fit to eq 6
T1 sequence (P11086 1-282): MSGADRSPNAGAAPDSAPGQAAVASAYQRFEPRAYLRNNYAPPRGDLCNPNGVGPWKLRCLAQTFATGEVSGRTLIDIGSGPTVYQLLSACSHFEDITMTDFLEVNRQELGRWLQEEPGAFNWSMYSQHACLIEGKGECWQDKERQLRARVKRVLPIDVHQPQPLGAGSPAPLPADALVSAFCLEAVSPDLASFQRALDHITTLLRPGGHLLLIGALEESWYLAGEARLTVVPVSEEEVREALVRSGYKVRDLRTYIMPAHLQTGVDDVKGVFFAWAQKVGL

human PNMT (hPNMT) [2] = target: T1, human PNMT (hPNMT); test: Isothermal titration calorimetry of ligand binding to hPNMT; conditions: for binding to free hPNMT: no AdoMet or AdoHcy present
human PNMT (hPNMT) [3] = target: T1, human PNMT (hPNMT); conditions: pH 8.0, 30 °C; ref [30]; cited from earlier work
human PNMT (hPNMT) [4] = target: T1, human PNMT (hPNMT); test: Determination of inhibition constants and inhibition patterns for hPNMT; format: biochemical; conditions: pH 8.0, 30 °C; for Ki: read-out: Kis
human PNMT (hPNMT) [5] = target: T1, human PNMT (hPNMT); test: hPNMT initial velocity studies; format: biochemical
[6] = varied substrate AdoMet, fixed PEA 100 μM
[7] = varied substrate PEA, fixed AdoMet 5 μM

| SMILES | pKa2 from LogV/K pH profile (human PNMT (hPNMT) [1]) | pKa3 from LogV/K pH profile (human PNMT (hPNMT) [1]) | Kd (human PNMT (hPNMT) [2]) [µM] | binding to free hPNMT (human PNMT (hPNMT) [2]; ITC) | Kii (human PNMT (hPNMT) [4]; [7]) [µM] | further results |
| --- | --- | --- | --- | --- | --- | --- |
| NCC(O)c1ccccc1 (stereo not drawn) [PEA, phenylethanolamine] | 8.66 and 8.66 ± 0.03 | 9.26 and 9.26 ± 0.03 | 60 ± 2 | did not bind | – | kcat (human PNMT (hPNMT) [3]): 0.0473 ± 0.00167 s⁻¹; kcat/Ka (human PNMT (hPNMT) [3]): (2.8 ± 0.2) × 10^4 M^−1 min^−1 |
| CNC[C@H](O)c1ccc(O)c(O)c1 [Epinephrine, epinephrine] | – | – | – | – | 51 ± 1.0 | Kii (human PNMT (hPNMT) [4]; [6]): 22 ± 0.8 µM; preference for binding in presence of AdoHcy over AdoMet (human PNMT (hPNMT) [2]; ITC): 5 fold |
| Nc1ncnc2c1ncn2[C@@H]1O[C@H](CSCC[C@H](N)C(=O)O)[C@@H](O)[C@H]1O [AdoHcy, S-adenosyl-L-homocysteine] | – | – | – | – | 1.0 ± 0.02 | Ki (human PNMT (hPNMT) [4]; [6]): 0.8 ± 0.04 µM; Ki (human PNMT (hPNMT) [4]; [7]): 2.5 ± 0.28 µM |
| C[S+](CC[C@H](N)C(=O)[O-])C[C@H]1O[C@@H](n2cnc3c(N)ncnc32)[C@H](O)[C@@H]1O (stereo partly drawn) [AdoMet, S-adenosyl-L-methionine] | 7.25 | 9.15 ± 0.12 | 4.6 ± 0.7 | – | – | – |
| NC[C@H](O)c1ccc(O)c(O)c1 [NE, norepinephrine] | – | – | 7.2 ± 0.2 | did not bind | – | – |
| NCC(O)c1ccc(O)cc1 (stereo not drawn) [Octopamine, octopamine] | – | – | 3.3 ± 0.1 | did not bind | – | Kia (human PNMT (hPNMT) [5]; dissociation constant from eq 1, phosphate buffer pH 8.0, 30 °C): 2.1 ± 0.2 µM; Km lower than that of PEA (human PNMT (hPNMT) [5]; ratio of Km values against PEA): 20 fold |
